Laboratory results as given in EP0510260A2, “6'-C-alkyl-3-deazaneplanocin A derivative and its preparation process and use” (ASAHI KASEI KOGYO KABUSHIKI KAISHA, priority 1991, dated 1992).

What was measured:
Vero cells = test: Measurement of cytotoxicity by the MTT method; type: cell-based; settings: cultured 72 hours, ID50 (growth of cells inhibited to 50%)
Experimental: Added to 100 µℓ of Eagle's minimum essential medium were 100 µℓ of Eagle's minimum essential medium (with 10% fetal calf serum), in which Vero cells were suspended at the concentration of 5 x 10⁴ cells/mℓ as well as a test compound. The resultant mixture was cultured for 72 hours in a […] flat bottom plate. The cytotoxicity of the test compound was then measured by the MTT measuring method reported in J. Immunol. Methods, 65, 55-63 (1983). The cytotoxicity is indicated in terms of the concentration (ID₅₀) which inhibited the growth of cells to 50%.

virus = test: Antiviral activity: cytopathic effect (CPE) inhibition in virus-inoculated Vero cells; type: cell-based; settings: MIC, virus at 100 times TCID50, cultured 36 hours at 37°C, CPE observed microscopically
Experimental: By partly modifying the testing method reported in Antimicrobial Agents and Chemotherapy, 24(3), 353-361 (1983), antiviral activity was analyzed in the following manner. 200 µℓ of Eagle's minimum essential medium (with 10% fetal calf serum), in which Vero cells (product of Flow General Inc., marketed by Dainippon Pharmaceutical Co., Ltd., available from National Institute of Health) were suspended at the concentration of 3 x 10⁵ cells/mℓ, were cultured in a […] flat bottom plate. Subsequent to dense monolayer culture, the medium was removed and 90 µℓ of Eagle's minimum essential medium (with 3% fetal calf serum) containing a test compound were added. The tissue culture infections dosis 50% (TCID₅₀) had been determined in advance without addition of any drug. The above-prepared culture plate was inoculated with 10 µℓ of a virus solution whose concentration was 100 times higher than TCID₅₀ determined in advance. The cells were cultured for 36 hours at 37°C under 5% CO₂. The cytopathic effect (CPE) was microscopically observed, whereby the minimum virus growth inhibitory concentration (MIC) was determined.

| SMILES | 50% cell growth inhibitory concentration (ID50) (Vero cells) [µg/mL] | Minimum virus growth inhibitory concen. (virus) [µg/mL] |
| --- | --- | --- |
| CC(O)C1=C[C@@H](n2cnc3c(N)nccc32)[C@H](O)[C@@H]1O (single isomer, unassigned) [6'-c-Methyl-3-deazaneplanocin A, 6'-C-Methyl-3-deazaneplanocin A] | 12.4 | 1.0 |
| Nc1nccc2c1ncn2[C@@H]1C=C(CO)[C@@H](O)[C@H]1O [3-Deazaneplanosin A, 3-deazaneplanocin A] | – | 0.24 |
| Nc1ncnc2c1ncn2[C@@H]1C=C(CO)[C@@H](O)[C@H]1O [Neplanocin A] | – | 0.24 |
